Test results taken from paper PMC7414126 (Scientific Reports, 2020).
Several values for one entry are separate records, joined by “and”; a condition that tells them apart may be missing. Identical values can stand only once.

Columns and labels:
[1] = molecular target: T1, NLuc-hH2R (Homo sapiens, UniProt P25021); test: Real-time NanoBRET kinetic binding experiments
T1 construct: membrane signal peptide of the murine 5HT3A receptor (N); expressed in transfected cells
Description: The cell line stably expressing the NLuc-hH2R construct was detached from the cell culture dishes after reaching ~ 80% confluency by treatment with trypsin/EDTA (0.05%/0.2%, for 2 min at 37 °C) and was centrifuged (600×g, 5 min). The cell pellet was then resuspended in Leibovitz’ L-15 medium (L-15), supplemented with 5% FCS + 10 mM HEPES, and 1.0 × 10^5 cells/well were seeded in 70 µL (saturation and competition binding) or 80 µL (kinetic experiments) of assay medium into white 96-well cell-Grade™ plates (Brand GmbH & Co. KG, Wertheim, Germany). The cells were then incubated at 37 °C in a humidified atmosphere (no additional CO2) overnight. For saturation binding experiments, serial dilutions (tenfold concentrated) of the fluorescent ligands (8–10) and famotidine (4, 300-fold excess over the respective concentration of fluorescent ligand, non-specific binding) were prepared in dilution buffer (L-15 + 2% BSA + 10 mM HEPES). 10 µL of the fluorescent ligand dilution and 10 µL of L-15 (total binding) or the dilution of 4 (non-specific binding) were added to the cells. After 60 min incubation time at 27 °C, 10 µL of the substrate furimazine, which was diluted according to manufacturer’s protocol beforehand, were added. After 5 min of equilibration time at 27 °C, the measurement was started. Competition binding experiments were performed as described above using one fixed concentration of fluorescent ligand 8 (c = 50 nM) and varying concentrations of the competitors 1–4, 11, 12, that were added at the same time. Kinetic measurements were performed as follows: 10 µL of L-15 (for total binding) or 4 (300-fold excess, c = 15 µM, non-specific binding) were added to the cells. After addition of the diluted substrate, the plate was placed inside the reader for 5 min to equilibrate. To start association 50 µL of a threefold concentrated solution of the fluorescent ligand 8 (cfinal = 50 nM) were added to the adherent cells and the plate was measured for 60 min. Dissociation experiments were conducted in wells, which have been preincubated with 8 as described above for association experiments. To initiate dissociation, 50 µL of a fourfold concentrated solution of 4 (300-fold excess, cfinal = 15 µM) were added to the cells and the measurement was performed for 4 h. All measurements were performed on a TECAN InfiniteLumi plate reader (TECAN, Grödig, Austria) at 27 °C using the Blue2 NB (460 nm ± 35 nm, bandpass) and the Red NB (> 610 nm, longpass) filter combination with an integration time of 100 ms. For the kinetic experiments, integration time was increased to 500 ms for both channels to reduce noise. BRET ratios were calculated by dividing the acceptor emission (red NB) by the donor luminescence (Blue2 NB).
For kinetic experiments, association experiments were fitted with the “one-phase association” fit yielding kobs, whereas the dissociation experiments were fitted assuming a “one-phase decay” model resulting in koff. The association rate constant kon was calculated using the following equation: kon = (kobs − koff)/c(ligand); c(ligand) = 50 nM. Dissociation half-life t1/2 was calculated applying the following formula: t1/2 = ln(2)/koff.The kinetic equilibrium dissociation constant Kd(kin) was calculated as follows: Kd(kin) = koff/kon. The errors for kon, t1/2 and Kd(kin) were calculated according to the Gaussian law of error propagation. All experimental data were analyzed using Prism 8 software (GraphPad, San Diego, CA, USA).

[2] = molecular target: T2, hH2R-Gsαs fusion protein (Homo sapiens, UniProt P25021); test: Radioligand competition binding with [3H]UR-DE257 on Sf9 membranes; details: read-out: pKi (RL comp. binding Sf9 membranes) (converted)
T2 construct: made in house; host or cells: Sf9 insect cells (recombinant baculovirus), membrane preparation
T2 sequence (P25021+P63092 fused): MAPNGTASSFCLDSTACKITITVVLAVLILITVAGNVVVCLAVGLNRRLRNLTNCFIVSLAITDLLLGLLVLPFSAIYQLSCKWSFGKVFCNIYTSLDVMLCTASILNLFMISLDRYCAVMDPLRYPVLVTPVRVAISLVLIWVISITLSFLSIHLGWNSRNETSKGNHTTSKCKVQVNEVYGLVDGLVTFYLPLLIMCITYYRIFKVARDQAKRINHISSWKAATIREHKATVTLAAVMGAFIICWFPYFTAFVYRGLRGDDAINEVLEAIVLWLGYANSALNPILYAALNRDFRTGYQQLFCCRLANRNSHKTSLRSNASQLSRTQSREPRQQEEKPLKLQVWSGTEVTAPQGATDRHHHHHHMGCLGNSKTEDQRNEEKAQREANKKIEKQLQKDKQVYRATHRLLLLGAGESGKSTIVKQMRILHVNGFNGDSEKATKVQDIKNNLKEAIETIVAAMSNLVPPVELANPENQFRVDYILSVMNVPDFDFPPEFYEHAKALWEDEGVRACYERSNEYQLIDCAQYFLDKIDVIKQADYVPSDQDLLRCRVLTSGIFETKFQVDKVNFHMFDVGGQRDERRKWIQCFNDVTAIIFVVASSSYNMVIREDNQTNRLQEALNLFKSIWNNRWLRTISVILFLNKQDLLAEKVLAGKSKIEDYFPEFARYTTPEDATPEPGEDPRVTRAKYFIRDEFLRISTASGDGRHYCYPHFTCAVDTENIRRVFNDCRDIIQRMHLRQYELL
Description: All data analysis was performed using Prism 5.0c (GraphPad, San Diego, CA, USA).

[3] = Chemical stability in binding buffer (HPLC); assay type: physicochemical; details: binding buffer pH 7.4, rt, 96 h incubation
Description: The chemical stability of the fluorescent H2R ligands UR-KAT478 (8), UR-KAT515 (9) and UR-KAT514 (10) was investigated at physiological pH (7.4) in binding buffer (12.5 mM MgCl2, 1 mM EDTA and 75 mM Tris/HCl, pH 7.4)^1 and in case of UR-KAT514 (10) as well in a mixture of DMSO/binding buffer 1:1. Incubation was started by addition of 27.5 μL of a 2.5 mM solution of the respective compounds in DMSO/Millipore H2O 1:1, which were freshly prepared from a 5 mM stock solution in DMSO, to 522.5 μL of binding buffer or DMSO/binding buffer 1:1 yielding a final concentration of […]. The samples were shaken for up to 4 days at 700 rpm. After indicated time periods, a 70 μL aliquot was taken and diluted with 70 µL of a mixture of MeCN, Millipore H2O and 10% aqueous TFA (60:90:1). Prior to HPLC analysis, the samples were stored at -20 °C. 50 μL of the resulting solution were analyzed by HPLC as described in the experimental section. The absorption was detected at 220 nm. The blank HPLC run was performed under identical conditions without any ligand.

T1 sequence (P25021 whole entry): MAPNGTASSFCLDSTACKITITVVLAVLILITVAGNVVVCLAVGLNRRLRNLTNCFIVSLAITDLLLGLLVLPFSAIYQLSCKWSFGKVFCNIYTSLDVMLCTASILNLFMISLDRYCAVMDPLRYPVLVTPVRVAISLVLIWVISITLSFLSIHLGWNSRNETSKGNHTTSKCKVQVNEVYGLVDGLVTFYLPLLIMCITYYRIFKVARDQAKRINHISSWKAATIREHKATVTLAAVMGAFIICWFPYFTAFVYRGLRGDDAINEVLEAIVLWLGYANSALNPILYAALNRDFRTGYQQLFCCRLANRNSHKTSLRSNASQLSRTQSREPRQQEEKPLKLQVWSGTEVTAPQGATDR

**Q.** What does the source list for `Cc1cc(/C=C/c2cc3c4c(c2)CCCN4CCC3)cc(C)[n+]1CCCCNc1c(NCCCOc2cccc(CN3CCCCC3)c2)c(=O)c1=O` [Compound 8, (E)-1-(4-((3,4-Dioxo-2-((3-(3-(piperidin-1-ylmethyl)phenoxy)propyl)amino)cyclobut-1-en-1-yl)amino)butyl)-2,6-dimethyl-4-(2-(2,3,6,7-tetrahydro-1H,5H-pyrido[3,2,1-ij]quinolin-9-yl)vinyl)pyridin-1-ium]?
**A.** Time to full association (fully bound to the receptor) ([1]; 50 nM of 8): approximately 30 min; Amount of ligand displaced within 240 min ([1]; 300-fold excess famotidine (15 µM), after 60 min preincubation with 50 nM 8): 35–40%; Kd ([1]; Kd(kin) = koff/kon): 1.3 ± 0.16 nM; kobs ([1]; association of 8, c = 50 nM, mean ± SEM, four experiments): 0.093 ± 0.009 min⁻¹; koff ([1]; dissociation started with famotidine 15 µM after 60 min preincubation with 50 nM 8): 3.83e-05 s⁻¹; kon ([1]; kon = (kobs − koff)/c(ligand), c = 50 nM, read-out: kon (association rate constant) (converted)): 30000 M⁻¹ s⁻¹; Dissociation half-life t1/2 ([1]; t1/2 = ln(2)/koff): 300 min and 300.4 ± 19.90 min; Ki [2]: 24 nM; Chemical stability (decomposition) [3]: no decomposition
